These results are taken from the supplement of paper PMC10307832.

Common to all, as to assay: relative viability (nuclei count vs DMSO), 5 days (fraction); higher = more cells survive
Compound in the assay “Sulindac + OSI-027”: CC1=C(CC(=O)O)c2cc(F)ccc2/C1=C\c1ccc([S+](C)[O-])cc1 [Sulindac] + COc1cccc2cc(-c3nc([C@H]4CC[C@H](C(=O)O)CC4)n4ncnc(N)c34)[nH]c12 [OSI-027] (partner 0.5 µM)
A digest of the protocol:
(§1)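 Lung cancer cell lines, seeded in 1536-well plates, were treated the following day by pin tool with a single drug or with five library-drug doses (not always all listed) in √10 steps on top of a fixed anchor-drug dose. Cells were fixed and nuclei stained in one step after 5 days, and nuclei were counted. Relative viability is the nuclei count for treated wells divided by that for vehicle wells, reported as medians of duplicate plates.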

Compound in the assay “Sulindac + Decitabine”: CC1=C(CC(=O)O)c2cc(F)ccc2/C1=C\c1ccc([S+](C)[O-])cc1 [Sulindac] + Nc1ncn([C@H]2C[C@H](O)[C@@H](CO)O2)c(=O)n1 [Decitabine] (partner 2 µM)
In a few lines:
as §1

Compound in assay [1]: CN[C@@H]1C[C@H]2O[C@@](C)([C@@H]1OC)n1c3ccccc3c3c4c(c5c6ccccc6n2c5c31)C(=O)NC4 [Staurosporine] + Nc1ncn([C@H]2C[C@H](O)[C@@H](CO)O2)c(=O)n1 [Decitabine] (partner 2 µM)
In a few lines: as §1

Compound in assay [2]: O=c1[nH]cc(F)c(=O)[nH]1 [5-Fluorouracil] + COc1cc2c(Oc3ccc(NC(=O)C4(C(=O)Nc5ccc(F)cc5)CC4)cc3F)ccnc2cc1OCCCN1CCOCC1 [Foretinib] (partner 0.25 µM)
A digest of the protocol: as §1

LU99A: the relative viability with Sulindac + OSI-027 (first compound 0.08 µM) was found to be 0.306; with Sulindac + OSI-027 (first compound 0.253 µM), 0.289; with Sulindac + OSI-027 (first compound 0.8 µM), 0.284; with Sulindac + OSI-027 (first compound 2.53 µM), 0.299; with Sulindac + OSI-027 (first compound 8 µM), 0.306; in the assay with Sulindac + Decitabine (first compound 0.08 µM), 1.05. Besides, the relative viability with Sulindac + Decitabine (first compound 0.253 µM) came to 0.806; with Sulindac + Decitabine (first compound 0.8 µM), 0.86; in the assay with Sulindac + Decitabine (first compound 2.53 µM), 0.782; with Sulindac + Decitabine (first compound 8 µM), 1.17; in assay [1] (first compound 0.005 µM), 0.934; in assay [1] (first compound 0.01581 µM), 0.672. Moreover, the relative viability in assay [1] (first compound 0.05 µM) worked out at 0.513; in assay [1] (first compound 0.1581 µM), 0.341; in assay [1] (first compound 0.5 µM), 0.198; in assay [2] (first compound 0.02 µM), 0.752; in assay [2] (first compound 0.2 µM) it was 0.851; in assay [2] (first compound 0.6325 µM) it was 0.693. Besides, in assay [2] (first compound 2 µM), the relative viability was found to be 0.488.

In the case of LXF-289, the relative viability with Sulindac + OSI-027 (first compound 0.08 µM) is 0.829; in the assay with Sulindac + OSI-027 (first compound 0.253 µM) it was 0.863; in the assay with Sulindac + OSI-027 (first compound 0.8 µM), 0.749; in the assay with Sulindac + OSI-027 (first compound 2.53 µM), 0.753; with Sulindac + OSI-027 (first compound 8 µM) it was 0.844; in the assay with Sulindac + Decitabine (first compound 0.08 µM), 0.404. The relative viability is 0.416 in the assay with Sulindac + Decitabine (first compound 0.253 µM); 0.372 with Sulindac + Decitabine (first compound 0.8 µM); 0.381 with Sulindac + Decitabine (first compound 2.53 µM); 0.452 with Sulindac + Decitabine (first compound 8 µM); 0.445 in assay [1] (first compound 0.005 µM); 0.266 in assay [1] (first compound 0.01581 µM). Further, the relative viability in assay [1] (first compound 0.05 µM) worked out at 0.31; in assay [1] (first compound 0.1581 µM), 0.18; in assay [1] (first compound 0.5 µM), 0.206; in assay [2] (first compound 0.02 µM) it was 0.917; in assay [2] (first compound 0.2 µM) it was 0.757; in assay [2] (first compound 0.6325 µM), 0.468. The relative viability in assay [2] (first compound 2 µM) amounted to 0.313.

Turning to NCI-H23, the relative viability was determined as 0.678 with Sulindac + OSI-027 (first compound 0.08 µM); 0.602 with Sulindac + OSI-027 (first compound 0.8 µM); 0.583 with Sulindac + OSI-027 (first compound 2.53 µM); 0.72 with Sulindac + OSI-027 (first compound 8 µM); 0.298 with Sulindac + Decitabine (first compound 0.08 µM); 0.331 with Sulindac + Decitabine (first compound 0.253 µM). Besides, the relative viability was 0.319 in the assay with Sulindac + Decitabine (first compound 0.8 µM); 0.324 with Sulindac + Decitabine (first compound 2.53 µM); 0.319 with Sulindac + Decitabine (first compound 8 µM); 0.309 in assay [1] (first compound 0.005 µM); 0.213 in assay [1] (first compound 0.01581 µM); 0.203 in assay [1] (first compound 0.05 µM). The relative viability in assay [1] (first compound 0.1581 µM) stood at 0.163; in assay [1] (first compound 0.5 µM) it was 0.161; in assay [2] (first compound 0.02 µM) it was 1.08; in assay [2] (first compound 0.2 µM) it was 0.825; in assay [2] (first compound 0.6325 µM), 0.52; in assay [2] (first compound 2 µM), 0.431.

With NCI-H322M, the relative viability with Sulindac + OSI-027 (first compound 0.08 µM) was determined as 0.6; in the assay with Sulindac + OSI-027 (first compound 0.253 µM), 0.534; in the assay with Sulindac + OSI-027 (first compound 0.8 µM), 0.442; with Sulindac + OSI-027 (first compound 2.53 µM) it was 0.557; in the assay with Sulindac + OSI-027 (first compound 8 µM), 0.602; in the assay with Sulindac + Decitabine (first compound 0.08 µM) it was 0.599. Also, the relative viability with Sulindac + Decitabine (first compound 0.253 µM) worked out at 0.614; in the assay with Sulindac + Decitabine (first compound 0.8 µM), 0.657; with Sulindac + Decitabine (first compound 2.53 µM), 0.631; in the assay with Sulindac + Decitabine (first compound 8 µM), 0.699; in assay [1] (first compound 0.005 µM), 0.667; in assay [1] (first compound 0.01581 µM), 0.49. Further, the relative viability came out at 0.529 in assay [1] (first compound 0.05 µM); 0.475 in assay [1] (first compound 0.1581 µM); 0.49 in assay [1] (first compound 0.5 µM); 0.976 in assay [2] (first compound 0.02 µM); 0.84 in assay [2] (first compound 0.2 µM); 0.749 in assay [2] (first compound 0.6325 µM). Moreover, in assay [2] (first compound 2 µM), the relative viability came to 0.446.

Regarding NCI-H358, the relative viability with Sulindac + OSI-027 (first compound 0.08 µM) was 0.941; with Sulindac + OSI-027 (first compound 0.253 µM), 0.891; with Sulindac + OSI-027 (first compound 0.8 µM), 0.657; with Sulindac + OSI-027 (first compound 2.53 µM), 0.727; with Sulindac + OSI-027 (first compound 8 µM), 0.891; in the assay with Sulindac + Decitabine (first compound 0.08 µM), 0.235. The relative viability with Sulindac + Decitabine (first compound 0.253 µM) turned out to be 0.2; with Sulindac + Decitabine (first compound 0.8 µM) it was 0.196; with Sulindac + Decitabine (first compound 2.53 µM), 0.186; in the assay with Sulindac + Decitabine (first compound 8 µM) it was 0.239; in assay [1] (first compound 0.005 µM), 0.244; in assay [1] (first compound 0.01581 µM), 0.213. The relative viability in assay [1] (first compound 0.05 µM) is 0.121; in assay [1] (first compound 0.1581 µM), 0.0796; in assay [1] (first compound 0.5 µM), 0.0666; in assay [2] (first compound 0.02 µM) it was 0.71; in assay [2] (first compound 0.2 µM), 0.918; in assay [2] (first compound 0.6325 µM), 0.657. Besides, in assay [2] (first compound 2 µM), the relative viability was determined as 0.308.

As to NCI-H441, the relative viability was 0.627 in the assay with Sulindac + OSI-027 (first compound 0.08 µM); 0.597 with Sulindac + OSI-027 (first compound 0.253 µM); 0.416 with Sulindac + OSI-027 (first compound 0.8 µM); 0.679 with Sulindac + OSI-027 (first compound 2.53 µM); 0.759 with Sulindac + OSI-027 (first compound 8 µM); 0.255 with Sulindac + Decitabine (first compound 0.08 µM). Moreover, the relative viability is 0.232 with Sulindac + Decitabine (first compound 0.253 µM); 0.252 with Sulindac + Decitabine (first compound 0.8 µM); 0.245 in the assay with Sulindac + Decitabine (first compound 2.53 µM); 0.264 with Sulindac + Decitabine (first compound 8 µM); 0.226 in assay [1] (first compound 0.005 µM); 0.192 in assay [1] (first compound 0.01581 µM). Further, the relative viability was found to be 0.238 in assay [1] (first compound 0.05 µM); 0.129 in assay [1] (first compound 0.1581 µM); 0.0673 in assay [1] (first compound 0.5 µM); 1.01 in assay [2] (first compound 0.02 µM); 0.887 in assay [2] (first compound 0.2 µM); 0.558 in assay [2] (first compound 0.6325 µM). Moreover, the relative viability in assay [2] (first compound 2 µM) was found to be 0.361.

Take NCI-H460: the relative viability with Sulindac + OSI-027 (first compound 0.08 µM) was 1.5; in the assay with Sulindac + OSI-027 (first compound 0.253 µM) it was 0.811; with Sulindac + OSI-027 (first compound 0.8 µM), 0.566; in the assay with Sulindac + OSI-027 (first compound 2.53 µM), 0.688; in the assay with Sulindac + OSI-027 (first compound 8 µM), 0.77; in the assay with Sulindac + Decitabine (first compound 0.08 µM), 0.745. Also, the relative viability with Sulindac + Decitabine (first compound 0.253 µM) worked out at 0.536; with Sulindac + Decitabine (first compound 0.8 µM), 0.438; with Sulindac + Decitabine (first compound 2.53 µM), 0.435; with Sulindac + Decitabine (first compound 8 µM), 0.601; in assay [1] (first compound 0.005 µM), 0.397; in assay [1] (first compound 0.01581 µM), 0.308. Further, the relative viability was 0.175 in assay [1] (first compound 0.05 µM); 0.0228 in assay [1] (first compound 0.1581 µM); 0.0211 in assay [1] (first compound 0.5 µM); 1.02 in assay [2] (first compound 0.02 µM); 0.73 in assay [2] (first compound 0.2 µM); 0.156 in assay [2] (first compound 0.6325 µM). Moreover, the relative viability in assay [2] (first compound 2 µM) worked out at 0.0731.
